According to ChEMBL document CHEMBL1148807 (J Med Chem, 2007):
Activity calls are given as the source filed them. The rule behind the calls is not given here. Non-standard residues stand in square brackets, D forms with d. Residues, ends and D or L forms follow the SMILES beside them. *: point of attachment. X1 = O=C(Cc1ccc(O)cc1)*

Tests used:
Vasopressin V1a receptor [1] = molecular target: T1, Vasopressin V1a receptor (Homo sapiens, UniProt P37288); test: Inhibition of human vasopressin V1a receptor expressed in CHO cells by polarisation binding assay using 96-well plate membranes; format: cell-based
Target sequence in this assay (P37288 whole entry): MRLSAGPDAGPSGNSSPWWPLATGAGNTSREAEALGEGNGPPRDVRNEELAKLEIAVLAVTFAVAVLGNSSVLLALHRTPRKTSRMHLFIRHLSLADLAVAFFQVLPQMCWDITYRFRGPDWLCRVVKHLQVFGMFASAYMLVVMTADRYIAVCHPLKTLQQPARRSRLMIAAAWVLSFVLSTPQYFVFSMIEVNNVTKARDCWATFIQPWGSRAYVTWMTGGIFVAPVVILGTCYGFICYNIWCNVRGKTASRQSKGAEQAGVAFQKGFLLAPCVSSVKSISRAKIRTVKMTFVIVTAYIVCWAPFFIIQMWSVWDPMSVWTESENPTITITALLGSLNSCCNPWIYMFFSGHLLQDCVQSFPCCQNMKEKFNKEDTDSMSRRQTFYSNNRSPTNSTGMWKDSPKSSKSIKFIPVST

Vasopressin V1a receptor [2] = molecular target: T1, Vasopressin V1a receptor; test: Inhibition of human vasopressin V1a receptor expressed in COS7 cells by HTRF-FRET assay using 96-well plate membranes; format: cell-based; conditions: cos-7
Target sequence in this assay (P37288 whole entry): as above

Vasopressin V1a receptor [3] = molecular target: T1, Vasopressin V1a receptor; test: Inhibition of human vasopressin V1a receptor expressed in COS7 cells by HTRF-FRET assay using 96-well plate cells; format: cell-based; conditions: cos-7
Target sequence in this assay (P37288 whole entry): as above

Vasopressin V1a receptor [4] = molecular target: T1, Vasopressin V1a receptor; test: Inhibition of human vasopressin V1a receptor expressed in COS7 cells by HTRF-FRET assay using 384-well plate membranes; format: cell-based; conditions: cos-7
Target sequence in this assay (P37288 whole entry): as above

Vasopressin V1a receptor [5] = molecular target: T1, Vasopressin V1a receptor; test: Inhibition of human vasopressin V1a receptor expressed in CHO cells by polarisation binding assay using 384-well plate membranes; format: cell-based
Target sequence in this assay (P37288 whole entry): as above

Vasopressin V1b receptor = molecular target: T2, Vasopressin V1b receptor (Homo sapiens, UniProt P47901); test: Displacement of [3H]AVP from human vasopressin V1b receptor expressed in CHO cells; format: cell-based
T2 sequence (P47901 whole entry): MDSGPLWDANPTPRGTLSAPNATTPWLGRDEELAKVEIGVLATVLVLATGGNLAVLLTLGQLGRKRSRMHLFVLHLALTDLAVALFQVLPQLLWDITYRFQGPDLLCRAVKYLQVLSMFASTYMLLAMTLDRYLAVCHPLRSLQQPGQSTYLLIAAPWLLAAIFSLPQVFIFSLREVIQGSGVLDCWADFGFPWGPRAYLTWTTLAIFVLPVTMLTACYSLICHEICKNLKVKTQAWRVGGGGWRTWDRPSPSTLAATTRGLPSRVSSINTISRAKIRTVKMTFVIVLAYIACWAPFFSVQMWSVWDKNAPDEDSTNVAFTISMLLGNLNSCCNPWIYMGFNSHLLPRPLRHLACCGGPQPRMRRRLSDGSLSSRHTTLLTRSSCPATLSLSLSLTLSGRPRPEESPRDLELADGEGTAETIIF

[6] = molecular target: T3, Oxytocin receptor (Homo sapiens) (UniProt P30559); test: Antagonist activity at oxytocin receptor expressed in CHO cells assessed as AVP-induced inositol monophosphate accumulation by IP-one ELISA test; format: functional, cell-based
T3 sequence (whole entry): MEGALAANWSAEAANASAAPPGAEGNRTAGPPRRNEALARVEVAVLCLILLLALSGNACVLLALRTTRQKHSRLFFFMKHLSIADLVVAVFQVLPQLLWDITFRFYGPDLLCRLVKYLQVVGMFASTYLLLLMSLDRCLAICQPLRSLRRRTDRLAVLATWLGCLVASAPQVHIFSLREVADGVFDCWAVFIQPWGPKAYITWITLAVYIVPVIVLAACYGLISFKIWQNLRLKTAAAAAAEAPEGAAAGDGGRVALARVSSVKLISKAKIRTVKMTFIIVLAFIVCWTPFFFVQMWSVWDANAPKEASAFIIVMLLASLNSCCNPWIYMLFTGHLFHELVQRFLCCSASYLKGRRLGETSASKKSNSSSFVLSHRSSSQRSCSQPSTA

Vasopressin V1a receptor [7] = molecular target: T1, Vasopressin V1a receptor; test: Agonist activity at human vasopressin V1a receptor expressed in CHO cells assessed as accumulation of inositol phosphate up to 1 uM; format: functional, cell-based
Target sequence in this assay (P37288 whole entry, looked up): as the sequence (P37288 whole entry) above

Vasopressin V2 receptor = Vasopressin V2 receptor (Homo sapiens, UniProt P30518); test: Displacement of [3H]AVP from human vasopressin V2 receptor expressed in CHO cells; format: cell-based
Sequence of Vasopressin V2 receptor (P30518 whole entry): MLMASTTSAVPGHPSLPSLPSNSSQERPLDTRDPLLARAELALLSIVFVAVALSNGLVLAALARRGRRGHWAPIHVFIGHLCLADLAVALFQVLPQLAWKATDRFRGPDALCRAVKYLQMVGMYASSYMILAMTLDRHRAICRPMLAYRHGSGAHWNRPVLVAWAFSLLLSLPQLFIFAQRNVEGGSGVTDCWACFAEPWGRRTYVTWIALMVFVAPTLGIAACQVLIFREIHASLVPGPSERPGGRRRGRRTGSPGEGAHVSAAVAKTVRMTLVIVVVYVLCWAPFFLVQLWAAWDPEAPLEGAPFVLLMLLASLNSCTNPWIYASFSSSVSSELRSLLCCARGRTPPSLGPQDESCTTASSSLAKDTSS

Oxytocin receptor = molecular target: T4, Oxytocin receptor (Homo sapiens, UniProt P30559); test: Displacement of [3H]AVP from human oxytocin receptor expressed in CHO cells; format: cell-based
T4 sequence (P30559 whole entry): T3 sequence (whole entry)

[8] = molecular target: T3, Oxytocin receptor (Homo sapiens); test: Agonist activity at human oxytocin receptor expressed in CHO cells assessed as accumulation of inositol phosphate up to 1 uM; format: functional, cell-based
Vasopressin V1a receptor [9] = molecular target: T1, Vasopressin V1a receptor; test: Displacement of [3H]AVP from human vasopressin V1a receptor expressed in CHO cells; format: cell-based
Target sequence in this assay (P37288 whole entry): as the sequence (P37288 whole entry) above

Vasopressin V1a receptor [10] = molecular target: T1, Vasopressin V1a receptor; test: Antagonist activity at human vasopressin V1a receptor expressed in CHO cells assessed as AVP-induced inositol monophosphate accumulation by IP-one ELISA test; format: functional, cell-based
Target sequence in this assay (P37288 whole entry, looked up): as the sequence (P37288 whole entry) above

| Compound | Ki (Vasopressin V1a receptor [1]) [nM] | Ki (Vasopressin V1a receptor [2]) [nM] | Ki (Vasopressin V1a receptor [3]) [nM] | Ki (Vasopressin V1a receptor [4]) [nM] | Ki (Vasopressin V1a receptor [5]) [nM] | Ki (Vasopressin V1b receptor) [nM] | Kinact [6] [nM] | Activity (Vasopressin V1a receptor [7]) | Ki (Vasopressin V2 receptor) [nM] | Ki (Oxytocin receptor) [nM] | Activity [8] | Ki (Vasopressin V1a receptor [9]) [nM] | Kinact (Vasopressin V1a receptor [10]) [nM] |
| --- | --- | --- | --- | --- | --- | --- | --- | --- | --- | --- | --- | --- | --- |
| COc1ccc(C[C@@H](NC(=O)Cc2ccc(O)cc2)C(=O)N[C@@H](Cc2ccccc2)C(=O)N[C@@H](CCC(N)=O)C(=O)N[C@@H](CC(N)=O)C(=O)N[C@@H](CCCN=C(N)N)C(=O)N2CCC[C@H]2C(=O)N[C@@H](CCCN=C(N)N)C(N)=O)cc1 (X1-[dY](Me)FQNRPR-NH2) | 0.036 | 0.21 | 0.28 | 0.21 | 0.032 |  |  |  |  |  |  |  |  |
| CC1CC(C)(C)Nc2c1cc1c(c2S(=O)(=O)O)OC2C(=C1c1c(Cl)c(SCC(=O)NCCCCCC(=O)N(C(=O)[C@H]3CCN(C(=O)[C@H](CCCNC(=N)N)NC(=O)[C@H](CC(N)=O)NC(=O)[C@H](CCC(N)=O)NC(=O)[C@H](Cc4ccccc4)NC(=O)[C@@H](Cc4ccc(O)cc4)N(C)C(=O)CCc4ccc(O)cc4)C3)[C@@H](CCCCN)C(N)=O)c(Cl)c(Cl)c1C(=O)O)CC1C(=NC(C)(C)CC1C)C2S(=O)(=O)O (stereo partly drawn) |  |  |  |  |  | 100 | 0.17 | inactive | > 1000 | 1.04 | inactive | 0.09 | 0.28 |
